Key:
YFP+ microglia = test: Protein-level expression of inflammatory and adhesion markers in YFP+ microglia and spinal cord (flow cytometry, immunostaining, Bioplex); format: in vivo, mouse; details: BRAF^VE mice, following PLX4720 treatment
Procedure: Preparation of cell suspensions, flow cytometry and cell sorting. Pregnant females were killed by exposure to CO2. Embryos were removed from the uterus, washed in 4° C. phosphate-buffered saline (PBS, Invitrogen) and dissected under a Leica M80 microscope. For blood phenotyping of adult mice, mice were anaesthetized and blood was collected by cardiac puncture. Bone marrow was collected by flushing one leg with 5 ml RPMI (Invitrogen). For flow cytometry experiments, organs were incubated in PBS containing 1 mg/ml collagenase D (Roche), 100 U/ml DNase I (Sigma), 2.4 mg/ml of dispase (Invitrogen) and 3% FCS (Invitrogen) at 37° C. for 30 min prior to mechanical disruption. For embryonic tissue incubation time at 37° C. was reduced to 20 min. For cell sorting, tissues were digested for 30 min at RT in PBS containing 2 mg/ml of collagenase D (Roche), 200 U/ml DNase I (Sigma), 4.8 mg/ml of dispase (Invitrogen), 3% FCS (Invitrogen) and 1 uM of flavopiridol (Sigma) followed by mechanical disruption under a 100 um filter. Cell suspensions were centrifuged at 320 g for 7 min, resuspended in FACS buffer (PBS, 0.5% BSA and 2 mm EDTA) containing purified anti-CD16/32 (1:100 dilution) and 5% normal mouse, 5% normal rat and 5% normal rabbit serum and incubated for 15 min at 4° C. […] For FMO (fluorescence minus one), brain cell suspensions from BRAF^WT and BRAF^VE mice were mixed prior to staining. […]

[1] = test system: Csf1r^MeriCreMer; BRAF^V600E; Rosa26^LSL-YFP mice
Procedure: Mice. […] Genotyping was performed according to protocols described previously for Csf1r^iCre Csf1r^MeriCreMer, CD11^Cre and BRAF^LSL-V600E mice. Cre recombination in Csf1r^MeriCreMer; Rosa26^LSL-YFP; BRAF^LSL-V600E embryos was induced by single injection at E8.5 of 37.5 mg per kg (body weight) of 4-hydroxytamoxifen (OH-TAM, Sigma) into pregnant females. OH-TAM was supplemented with 18.75 mg per kg (body weight) progesterone (Sigma) to counteract the mixed oestrogen agonist effects of tamoxifen, which can result in fetal abortions. Embryonic development was estimated considering the day of vaginal plug formation as 0.5 dpc. […] BRAF^WT and BRAF^VE male and female littermates were assigned randomly into the control or treated group. Scoring of mice was performed blinded and at least weekly by assessing hindlimb reflexes and other behavioral phenotypes such as axial rolling. The investigators were not blinded to allocation during experiments and outcome assessment.
Footprint analysis. Mice were given two trials to run down a runway before the experiment. Mouse forepaws and hindpaws were painted with red and blue ink, respectively. Mice were then allowed to run down a runway lined with white paper. At least four steps from the middle portion of each run were measured for (1) overlap between forepaw and hindpaw placement, (2) stride length, (3) front-base width (the distance between the right and left forelimb strides), and (4) hind-base width (the distance between the right and left hindlimb strides). Mean values were used for graphs and statistical analyses.
As a readout, hind limb clasping reflexes were examined every week and footprint assays were performed as described above before treatment and every 4 weeks during treatment.
To determine the potential effects of BRAF^V600E macrophage clones in adult tissues, a large cohort (n=155) of BRAF^VE mice and littermate controls were analyzed.

CCCS(=O)(=O)Nc1ccc(F)c(C(=O)c2c[nH]c3ncc(Cl)cc23)c1F [PLX4720]
expression of Dectin-1 (Clec7a), LFA-1 (CD11a), VLA-4 (CD49d), the Pdgf receptor, Il1b, and Il17a at the protein level (YFP+ microglia): decrease | onset of neurologic disease (cumulative incidence of the ataxic phenotype) ([1]; PLX4720-impregnated chow 417 mg/kg from 3 months of age, preliminary, small group): delays but does not totally prevent the onset of neurologic disease | disease progression ([1]; ad libitum PLX4720 diet started at one or three months of age): mitigated disease progression in both cases | BRAF^VE mice alive ([1]; by 9 months of age, PLX4720 diet): 80% | average clinical score ([1]; by 9 months of age, PLX4720 diet, score scale 1-4): 2 | course of the neurological disease and mortality ([1]; treatment of adult mice with BRAF^V600E mosaicism): slows the course of the neurological disease and reduces its mortality
